# In BindingDB's records for doi:10.1021/jm00164a009 (Research Biochemicals, 1990):
# Legend:
# [1] = Ability to inhibit [3H]-SCH- 23390 binding to Dopamine receptor D1 of canine striatal membranes
# [2] = as above; remark: listed apart in the source
SMILES,Ki [1] [nM],Kd [2] [nM]
CN1CCc2cc(I)c(O)cc2[C@@H](c2ccc(N=[N+]=[N-])cc2)C1,28,–
CN1CCc2cc(I)c(O)cc2[C@H](c2ccc(N=[N+]=[N-])cc2)C1,–,0.28
